# Results taken from paper PMC11109052, “Metabolism characterization and toxicity of N-hydap, a marine candidate drug for lung cancer therapy by LC–MS method” (Natural Products and Bioprospecting, 2024).
# Assays:
# [1] = system: HKMs; assay: Kinetics of N-hydap glucuronidation in HKMs; assay type: in vitro ADME, human; conditions: HKM
# Protocol: Various microsomes including HLMs, HKMs, HIMs, RLMs, RKMs, MLMs and MKMs were involved in CYP and UGT reactions of N-hydap. A typical CYP incubation mixture included 0.5 mg/mL microsomes protein, 3.3 mM glucose-6-phosphate, 3.3 mM MgCl2, 0.4 U/mL glucose-6-phosphate dehydrogenase, and N-hydap (1, 2.5, or 10 μM) in the 50 mM potassium phosphate buffer (KPI, pH 7.4). The incubation mixture was preincubated at 37 °C for 5 min, and the reaction was started by adding NADP to form a NADPH-regenerating system. Simultaneously, the classic UGT reaction system consisted of 50 mM KPI, 5 mM MgCl2, 0.5 mg/mL microsomes, 0.125 mg/mL alamethicin, and 5.25 mg/mL saccharolactone. The reaction was initiated after supplying UDPGA. The CYP and UGT mixtures were incubated at 37 °C in a shaking water bath (80 rpm) for 1.5 h to enhance metabolite formation. To terminate the reaction, an ice-cold solution of Tes (50 ng/mL, dissolved in methanol and used as an internal standard) was added to half of the mixture volume. […]
# The substrate concentrations used for HLMs were 0.05, 0.5, 2, 2.5, 5, 10, 25, 50, and 100 μM. […] The rates of N-hydap-G by enzymes were expressed as nmol/mg/min, representing the amount of metabolites formed per minute per milligram of protein. Kinetic parameters were determined by analyzing the Eadie–Hofstee plots. […]
# [2] = system: Ugt1a1; assay: Western blot protein level after 7 days gavage: UGT1A1; assay type: in vivo; conditions: mice, p.o. 7 days; liver
# Protocol: Mice were randomly divided into four groups, with eight animals in each group. The mice received oral pretreatment with N-hydap for 7 days at doses of 2, 5, and 10 mg/kg/day, which were considered as the low dose, medium dose, and high dose, respectively. Correspondingly, the control group received PBS. On the 8th day, the liver and kidneys were removed, and organs from eight mice per group were combined to prepare MLMs and MKMs using the detailed procedures above. Subsequently, we determined the activity of CYP and UGT enzymes by specific substrate metabolized with MLMs (0.5 mg/mL) and MKMs (0.2 mg/mL) in vitro. […] In the ex vivo experiments, the activity of enzymes was measured by quantifying the production of various metabolites (nM/mg protein/min). […] The measurements were performed using multiple reaction monitoring (MRM) transitions, which are specific mass spectrometry transitions used for quantification. […]
# After 7 days of N-hydap gavage, the liver and kidney tissues were lysed using RIPA buffer supplemented with a 1% protease inhibitor cocktail. […] Western blot signals were detected using an ECL chemiluminescence detection agent. The relative intensity of each protein band was scanned and quantified using Image J software.
# [3] = biological target: T1, UGT1A3 (Homo sapiens, UniProt P35503); assay: Incubation with recombinant human UGT isoforms: UGT1A3; assay type: in vitro ADME; conditions: recombinant UGT 2 μg/mL
# T1 construct: purchased Cypex (Scotland, UK)
# Protocol: Incubation of N-hydap (2.5 μM) with eight recombinant human CYP enzymes (CYP1A2, CYP2B6, CYP2C9, CYP2C19, CYP2D6, CYP3A4, CYP4A11 and CYP4F2) at three enzyme concentrations (2, 4, and 20 μg/mL) was conducted following the same procedure as described above for microsomes. Subsequently, incubation with N-hydap (1, 2.5, and 6 μM) and twelve recombinant human UGT isoforms (UGT1A1, UGT1A3, UGT1A4, UGT1A6, UGT1A7, UGT1A8, UGT1A9, UGT1A10, UGT2B4, UGT2B7, UGT2B15 and UGT2B17) was performed, with the enzyme concentration used at 2 μg/mL. All reactions were carried out in triplicate.
# [4] = Stability in tissue homogenate; assay type: in vitro ADME
# Protocol: The stability of the KPI solution was examined after storage at 4 °C for 24 h and incubation at 37 °C for 4 h, which was conducted using the QC samples at three concentrations (five samples for each concentration). Stability in plasma and tissue homogenate was assessed by testing samples stored at both 4 °C and room temperature for 24 h.
# T1 sequence (P35503 29-534): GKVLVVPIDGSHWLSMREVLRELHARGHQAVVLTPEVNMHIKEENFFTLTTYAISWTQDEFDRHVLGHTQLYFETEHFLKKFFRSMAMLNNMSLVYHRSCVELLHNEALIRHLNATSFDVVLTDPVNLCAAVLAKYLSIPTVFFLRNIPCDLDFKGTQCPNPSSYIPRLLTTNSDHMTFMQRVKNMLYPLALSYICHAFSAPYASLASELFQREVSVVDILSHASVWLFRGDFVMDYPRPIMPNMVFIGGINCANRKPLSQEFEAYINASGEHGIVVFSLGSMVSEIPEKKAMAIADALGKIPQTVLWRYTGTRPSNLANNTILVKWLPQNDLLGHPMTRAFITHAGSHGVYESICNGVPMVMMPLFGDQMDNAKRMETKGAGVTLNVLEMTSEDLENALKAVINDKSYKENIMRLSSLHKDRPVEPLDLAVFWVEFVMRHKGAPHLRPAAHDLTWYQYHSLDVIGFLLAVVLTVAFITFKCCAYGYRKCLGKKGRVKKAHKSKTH
structure (smiles),measurement,setting,value
"CC1CCC2C(C=CC(C)C2C(=O)c2c(O)c(C3(O)CCC(O)C4OC43)cn(O)c2=O)C1 (stereo not drawn) [N-hydap, N-Hydroxyapiosporamide]",Km,[1],240 µM
same,protein levels of UGT1A1,[2],slightly down-regulated
same,share of N-hydap glucuronidation by UGT1A3,[3],over 80%
same,"stability, Accuracy (Bias, %)","[4]; 60 nM, 4℃ for 24h",102.62%
same,"stability, Accuracy (Bias, %)","[4]; 60 nM, room temperature for 24h",103.17%
same,"stability, Accuracy (Bias, %)","[4]; 150 nM, 4℃ for 24h",103.40%
same,"stability, Accuracy (Bias, %)","[4]; 150 nM, room temperature for 24h",99.13%
same,"stability, Accuracy (Bias, %)","[4]; 500 nM, 4℃ for 24h",105.16%
same,"stability, Accuracy (Bias, %)","[4]; 500 nM, room temperature for 24h",93.38%
